Data from EP0394553A2, “Use of fluorine containing pyridone carboxylic acid derivatives for preparing a medicament for the treatment of HIV infections” (DAIICHI PHARMACEUTICAL CO., LTD., priority 1989, dated 1990).
Where two headings read alike, the source gives them in different places.

Tested on: HIV (LAV 1)
Assay: microbe, parasite or virus in culture
Details: for Viable cell count / Viral antigen-positive cell percentage: 4-day addition; for viability at 1 µg/mL / viability at 2.5 µg/mL / viability at 5 µg/mL / viability at 10 µg/mL: Human immunodeficiency virus 1, CCRF-CEM
Outline: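 CEM cells were infected with HIV LAV 1 at MOI 0.05 and cultured with test substance at 10, 5, 2.5 or 1 mcg/ml, with medium exchanged periodically up to 30 days. Viable cell count and percentage were measured by trypan blue, and antigen-positive cells by immunofluorescence with anti-HIV antiserum, at 4–30 days. Values are means of two wells.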

CCn1cc(C(=O)O)c(=O)c2cc(F)c(N3CCNCC3)cc21 [NFLX, 1-ethyl-6-fluoro-1,4-dihydro-4-oxo-7-(1-piperazinyl)-3-quinolinecarboxylic acid]
Viable cell count (1 mcg/ml, after 4 days): 230 × 10⁴ cells/ml
Viral antigen-positive cell percentage (1 mcg/ml, after 4 days): 88%
Viable cell count (1 mcg/ml, after 7 days): 52 × 10⁴ cells/ml
Viral antigen-positive cell percentage (1 mcg/ml, after 7 days): 75%
Viable cell count (1 mcg/ml, after 10 days): 26 × 10⁴ cells/ml
Viable cell count (1 mcg/ml, after 20 days): 0 × 10⁴ cells/ml
Viable cell count (1 mcg/ml, after 30 days): 0 × 10⁴ cells/ml
Viable cell count (2.5 mcg/ml, after 4 days): 240 × 10⁴ cells/ml
Viral antigen-positive cell percentage (2.5 mcg/ml, after 4 days): 93%
Viable cell count (2.5 mcg/ml, after 7 days): 59 × 10⁴ cells/ml
Viral antigen-positive cell percentage (2.5 mcg/ml, after 7 days): 55%
Viable cell count (2.5 mcg/ml, after 10 days): 40 × 10⁴ cells/ml
Viable cell count (2.5 mcg/ml, after 20 days): 2 × 10⁴ cells/ml
Viable cell count (2.5 mcg/ml, after 30 days): 70 × 10⁴ cells/ml
Viral antigen-positive cell percentage (2.5 mcg/ml, after 30 days): ≦1%
Viable cell count (5 mcg/ml, after 4 days): 230 × 10⁴ cells/ml
Viral antigen-positive cell percentage (5 mcg/ml, after 4 days): 83%
Viable cell count (5 mcg/ml, after 7 days): 84 × 10⁴ cells/ml
Viral antigen-positive cell percentage (5 mcg/ml, after 7 days): 65%
Viable cell count (5 mcg/ml, after 10 days): 86 × 10⁴ cells/ml
Viable cell count (5 mcg/ml, after 20 days): 28 × 10⁴ cells/ml
Viable cell count (5 mcg/ml, after 30 days): 330 × 10⁴ cells/ml
Viral antigen-positive cell percentage (5 mcg/ml, after 30 days): ≦1%
Viable cell count (10 mcg/ml, after 4 days): 180 × 10⁴ cells/ml
Viral antigen-positive cell percentage (10 mcg/ml, after 4 days): 92%
Viable cell count (10 mcg/ml, after 7 days): 60 × 10⁴ cells/ml
Viral antigen-positive cell percentage (10 mcg/ml, after 7 days): 63%
Viable cell count (10 mcg/ml, after 10 days): 250 × 10⁴ cells/ml
Viral antigen-positive cell percentage (10 mcg/ml, after 10 days): 50%
Viable cell count (10 mcg/ml, after 20 days): 370 × 10⁴ cells/ml
Viral antigen-positive cell percentage (10 mcg/ml, after 20 days): 4%
Viable cell count (10 mcg/ml, after 30 days): 400 × 10⁴ cells/ml
Viral antigen-positive cell percentage (10 mcg/ml, after 30 days): ≦1%
viability at 1 µg/mL (96 h, read-out: Viable cell percentage, 1 mcg/ml, 4-day addition, after 4 days): 94%
viability at 2.5 µg/mL (96 h, read-out: Viable cell percentage, 2.5 mcg/ml, 4-day addition, after 4 days): 94%
viability at 5 µg/mL (96 h, read-out: Viable cell percentage, 5 mcg/ml, 4-day addition, after 4 days): 94%
viability at 10 µg/mL (96 h, read-out: Viable cell percentage, 10 mcg/ml, 4-day addition, after 4 days): 92%
viability at 1 µg/mL (read-out: Viable cell percentage, 1 mcg/ml, 4-day addition, after 7 days): 59%
viability at 1 µg/mL (read-out: Viable cell percentage, 1 mcg/ml, 4-day addition, after 10 days): 30%
viability at 1 µg/mL (read-out: Viable cell percentage, 1 mcg/ml, 4-day addition, after 20 days): 0%
viability at 1 µg/mL (read-out: Viable cell percentage, 1 mcg/ml, 4-day addition, after 30 days): 0%
viability at 2.5 µg/mL (read-out: Viable cell percentage, 2.5 mcg/ml, 4-day addition, after 7 days): 67%
viability at 2.5 µg/mL (read-out: Viable cell percentage, 2.5 mcg/ml, 4-day addition, after 10 days): 47%
viability at 2.5 µg/mL (read-out: Viable cell percentage, 2.5 mcg/ml, 4-day addition, after 20 days): 33%
viability at 2.5 µg/mL (read-out: Viable cell percentage, 2.5 mcg/ml, 4-day addition, after 30 days): 96%
viability at 5 µg/mL (read-out: Viable cell percentage, 5 mcg/ml, 4-day addition, after 7 days): 67%
viability at 5 µg/mL (read-out: Viable cell percentage, 5 mcg/ml, 4-day addition, after 10 days): 61%
viability at 5 µg/mL (read-out: Viable cell percentage, 5 mcg/ml, 4-day addition, after 20 days): 81%
viability at 5 µg/mL (read-out: Viable cell percentage, 5 mcg/ml, 4-day addition, after 30 days): 95%
viability at 10 µg/mL (read-out: Viable cell percentage, 10 mcg/ml, 4-day addition, after 7 days): 71%
viability at 10 µg/mL (read-out: Viable cell percentage, 10 mcg/ml, 4-day addition, after 10 days): 91%
viability at 10 µg/mL (read-out: Viable cell percentage, 10 mcg/ml, 4-day addition, after 20 days): 97%
viability at 10 µg/mL (read-out: Viable cell percentage, 10 mcg/ml, 4-day addition, after 30 days): 94%
